Values joined by “and” are separate entries in the source; they are usually repeats but may differ in a detail not shown here. Identical values can stand only once.
Assays:
Type in all cases: in vivo
Blackgrass [1] = assay: post-emergence herbicide test; settings: Alopecurus myosuroides, post-emergence, 0.25 lb/A; read-out: % plant inhibition
Excerpt: (§1) Topsoil was placed in aluminum pans having holes in the bottom and compacted to a depth of 1.3 to 1.6 cm from the top of the pan. A predetermined number of seeds of each of several dicotyledonous and monocotyledonous annual plant species and/or vegetative propagules for the perennial plant species were placed on the soil and pressed into the soil surface. The seeds and/or vegetative propagules were covered with soil and leveled. The pans were then placed on a bench in the greenhouse and watered either from overheard irrigation or by subirrigation as needed. After the plants reach the desired age (two to three weeks), each pan, is removed individually to a spraying chamber and sprayed by means of an atomizer, operating at a spray pressure of 170.3 kPa […] at the application rates noted. In the spray solution was an amount of an emulsifying agent mixture to give a spray solution or suspension which contains about 0.4% by volume of the emulsifier. The spray solution or suspension contained a sufficient amount of the candidate chemical in order to give application rates of the active ingredient corresponding to those shown in Tables 4 and 5, while applying a total amount of solution or suspension equivalent to 1870 L/Ha (200 gallons/acre). […] The post-emergent herbicidal activity shown in these tables is the percent inhibition of each plant species. Testing with warm season and cool season plants is shown in tables 4a-4d and […], respectively.

Birdseye Speedwell [2] = assay: post-emergence herbicide test; settings: post-emergence, 0.25 lb/A; read-out: % plant inhibition
Excerpt: as §1

Giant Foxtail = assay: post-emergence herbicide test; settings: Setaria faberi, post-emergence, 0.25 lb/A; read-out: % plant inhibition
Excerpt: as §1

Soybean [3] = assay: post-emergence herbicide test; settings: Glycine max, post-emergence, 0.25 lb/A; read-out: % plant inhibition
Excerpt: as §1

Wild Oats [4] = assay: post-emergence herbicide test; settings: Avena fatua, post-emergence, 0.25 lb/A; read-out: % plant inhibition
Excerpt: as §1

Common Chickweed [5] = assay: post-emergence herbicide test; settings: post-emergence, 0.25 lb/A; read-out: % plant inhibition
Excerpt: as §1

Downy Brome [6] = assay: post-emergence herbicide test; settings: Bromus tectorum, post-emergence, 0.25 lb/A; read-out: % plant inhibition
Excerpt: as §1

Rape [7] = assay: post-emergence herbicide test; settings: post-emergence, 0.25 lb/A; read-out: % plant inhibition
Excerpt: as §1

Bedstraw Catchweed [8] = assay: post-emergence herbicide test; settings: Galium aparine, post-emergence, 0.25 lb/A; read-out: % plant inhibition
Excerpt: as §1

Wheat [9] = assay: post-emergence herbicide test; settings: Triticum aestivum, post-emergence, 0.25 lb/A; read-out: % plant inhibition
Excerpt: as §1

Green Foxtail [10] = assay: post-emergence herbicide test; settings: Setaria viridis, post-emergence, 0.25 lb/A; read-out: % plant inhibition
Excerpt: as §1

Cocklebur = assay: post-emergence herbicide test; settings: Xanthium strumarium, post-emergence, 0.25 lb/A; read-out: % plant inhibition
Excerpt: as §1

Barnyardgrass = assay: post-emergence herbicide test; settings: Echinochloa crus-galli, post-emergence, 0.25 lb/A; read-out: % plant inhibition
Excerpt: as §1

Corn [11] = assay: post-emergence herbicide test; settings: Zea mays, post-emergence, 0.25 lb/A; read-out: % plant inhibition
Excerpt: as §1

Morning Glory = assay: post-emergence herbicide test; settings: Ipomoea, post-emergence, 0.25 lb/A; read-out: % plant inhibition
Excerpt: as §1

Velvetleaf [12] = assay: post-emergence herbicide test; settings: Abutilon theophrasti, post-emergence, 0.25 lb/A; read-out: % plant inhibition
Excerpt: as §1

Seedling Johnsongrass = assay: post-emergence herbicide test; settings: Sorghum halepense, post-emergence, 0.25 lb/A; read-out: % plant inhibition
Excerpt: as §1

Blackgrass [13] = assay: pre-emergence herbicide test; settings: Alopecurus myosuroides, pre-emergence, 0.25 lb/A; read-out: % plant inhibition
Procedure: (§2) Topsoil was placed in an aluminum pan and compacted to a depth of 1.3 to 1.6 cm from the top of the pan. On the top of the soil was placed a predetermined number of seeds of each of several monocotyledonous and dicotyledonous annual plant species and/or vegetative propagules of various perennial plant species. The pan was then level filled with a cover layer of topsoil to which was added a known amount of active ingredient either prior to or after application of the cover layer. The active ingredient was dissolved or suspended in an organic solvent, e.g., acetone, or water as carrier for application to the cover layer. The pans were moved to a greenhouse bench where they were thereafter watered from below as needed to give adequate moisture for germination and growth. In some cases, an initial overhead irrigation of 1/4 inch of water was applied immediately after treatment.
(§3) Approximately 14 days after seeding and treating, the pans were observed and the results (% inhibition) were recorded.
(§4) The tables below summarize the results of the pre-emergence herbicidal activity tests of compounds of this invention tested with warm season plants (Tables 2a-2d) and cool season plants (Tables 3a and 3b). The herbicidal rating shown in these tables is the percent inhibition of each plant species. The plant species usually regarded as weeds are identified in the tables by single letter headings and crop species identified by two letter headings both headings being above the columns in accordance with the following legend: […]

Birdseye Speedwell [14] = assay: pre-emergence herbicide test; settings: pre-emergence, 0.25 lb/A; read-out: % plant inhibition
Procedure: as §2, §3, §4

Wild Oats [15] = assay: pre-emergence herbicide test; settings: Avena fatua, pre-emergence, 0.25 lb/A; read-out: % plant inhibition
Procedure: as §2, §3, §4

Common Chickweed [16] = assay: pre-emergence herbicide test; settings: pre-emergence, 0.25 lb/A; read-out: % plant inhibition
Procedure: as §2, §3, §4

Downy Brome [17] = assay: pre-emergence herbicide test; settings: Bromus tectorum, pre-emergence, 0.25 lb/A; read-out: % plant inhibition
Procedure: as §2, §3, §4

Rape [18] = assay: pre-emergence herbicide test; settings: pre-emergence, 0.25 lb/A; read-out: % plant inhibition
Procedure: as §2, §3, §4

Bedstraw Catchweed [19] = assay: pre-emergence herbicide test; settings: Galium aparine, pre-emergence, 0.25 lb/A; read-out: % plant inhibition
Procedure: as §2, §3, §4

Wheat [20] = assay: pre-emergence herbicide test; settings: Triticum aestivum, pre-emergence, 0.25 lb/A; read-out: % plant inhibition
Procedure: as §2, §3, §4

Green Foxtail [21] = assay: pre-emergence herbicide test; settings: Setaria viridis, pre-emergence; 0.25 lb/A; read-out: % plant inhibition
Procedure: as §2, §3, §4

Soybean [22] = assay: pre-emergence herbicide test; settings: 0.25 lb/A
Procedure: as §2, §3, §4

Corn [23] = assay: pre-emergence herbicide test; settings: 0.25 lb/A
Procedure: as §2, §3, §4

Velvetleaf [24] = assay: pre-emergence herbicide test; settings: Abutilon theophrasti, pre-emergence, 0.25 lb/A; read-out: % plant inhibition
Procedure: as §2, §3, §4

Row | Compound | inhibition at 280.212 g/ha (Blackgrass [1]) | inhibition at 280.212 g/ha (Birdseye Speedwell [2]) | inhibition at 280.212 g/ha (Giant Foxtail) | inhibition at 280.212 g/ha (Soybean [3]) | inhibition at 280.212 g/ha (Wild Oats [4]) | inhibition at 280.212 g/ha (Common Chickweed [5]) | inhibition at 280.212 g/ha (Downy Brome [6]) | inhibition at 280.212 g/ha (Rape [7]) | inhibition at 280.212 g/ha (Bedstraw Catchweed [8]) | inhibition at 280.212 g/ha (Wheat [9]) | inhibition at 280.212 g/ha (Green Foxtail [10]) | inhibition at 280.212 g/ha (Cocklebur) | inhibition at 280.212 g/ha (Barnyardgrass) | inhibition at 280.212 g/ha (Corn [11]) | inhibition at 280.212 g/ha (Morning Glory) | inhibition at 280.212 g/ha (Velvetleaf [12]) | inhibition at 280.212 g/ha (Seedling Johnsongrass) | inhibition at 280.212 g/ha (Blackgrass [13]) | inhibition at 280.212 g/ha (Birdseye Speedwell [14]) | inhibition at 280.212 g/ha (Wild Oats [15]) | further results
1 | CC(C)OC(=O)c1cc(-c2nn(C)c(C(F)(F)F)c2C=O)c(F)cc1Cl [Compound 12, 2-Chloro-4-fluoro-5-[4-formyl-1-methyl-5-(trifluoromethyl)-1H-pyrazol-3-yl]benzoic acid, 1-methylethyl ester] | 50% | 100% | 35% | 85% | 85% | 100% | 90% | 100% | 95% | 30% | 90% | 98% | 80% | 15% | 99% | 99% | 65% | 60% | 80% | 60% | inhibition at 280.212 g/ha (Common Chickweed [16]): 85%; inhibition at 280.212 g/ha (Downy Brome [17]): 60%; inhibition at 280.212 g/ha (Rape [18]): 15%; inhibition at 280.212 g/ha (Bedstraw Catchweed [19]): 65%; inhibition at 280.212 g/ha (Wheat [20]): 5%; inhibition at 280.212 g/ha (Green Foxtail [21]): 98%
2 | Cc1cc(-c2nn(C)c(C(F)(F)F)c2C)c(F)cc1Cl [Compound 33] | 5% | 15% | 0% | 15% | 5% | 10% | 5% | 5% | 10% | 5% | 15% | 0% | 0% | 0% | 10% | 10% | 0% | 40% | 55% | 5% | % plant inhibition (Soybean [22]): 5% and 0%; inhibition at 280.212 g/ha (Common Chickweed [16]): 30%; inhibition at 280.212 g/ha (Downy Brome [17]): 10%; inhibition at 280.212 g/ha (Rape [18]): 10%; inhibition at 280.212 g/ha (Bedstraw Catchweed [19]): 45%; inhibition at 280.212 g/ha (Wheat [20]): 0%; inhibition at 280.212 g/ha (Green Foxtail [21]): 50%; % plant inhibition (Corn [23]): 10%
3 | Cc1c(-c2cc(CO)c(Cl)cc2F)nn(C)c1C(F)(F)F [Compound 9, 2-Chloro-5-[1,4-dimethyl-5-(trifluoromethyl)-1H-pyrazol-3-yl]-4-fluorobenzenemethanol] | 20% | 35% | 10% | 60% | 25% | 15% | 25% | 20% | 50% | 13% | 20% | 35% | 25% | 10% | 45% | 95% | 20% | 50% | 90% | 5% | % plant inhibition (Soybean [22]): 0%; inhibition at 280.212 g/ha (Common Chickweed [16]): 90%; inhibition at 280.212 g/ha (Downy Brome [17]): 5%; inhibition at 280.212 g/ha (Rape [18]): 30%; inhibition at 280.212 g/ha (Bedstraw Catchweed [19]): 20%; inhibition at 280.212 g/ha (Wheat [20]): 0%; inhibition at 280.212 g/ha (Green Foxtail [21]): 100%; inhibition at 280.212 g/ha (Velvetleaf [24]): 98%
4 | COCc1cc(-c2nn(C)c(C(F)(F)F)c2C)c(F)cc1Cl [Compound 11] | 15% | 60% | 0% | 20% | 5% | 10% | 10% | 5% | 50% | 6% | 25% | 15% | 0% | 15% | 25% | 50% | 5% | 60% | 95% | 20% | inhibition at 280.212 g/ha (Common Chickweed [16]): 25%; inhibition at 280.212 g/ha (Downy Brome [17]): 10%; inhibition at 280.212 g/ha (Rape [18]): 15%; inhibition at 280.212 g/ha (Bedstraw Catchweed [19]): 75%; inhibition at 280.212 g/ha (Wheat [20]): 0%; inhibition at 280.212 g/ha (Green Foxtail [21]): 100%
5 | Cc1c(-c2cc(CBr)c(Cl)cc2F)nn(C)c1C(F)(F)F [Compound 10, 3-[5-(Bromomethyl)-4-chloro-2-fluorophenyl]-1,4-dimethyl-5-(trifluoromethyl)-1H-pyrazole] | 20% | 90% | 15% | 8% | 10% | 15% | 25% | 35% | 25% | 10% | 50% | 55% | 5% | 3% | 35% | 90% | 15% | 20% | 50% | 5% | inhibition at 280.212 g/ha (Common Chickweed [16]): 5%; inhibition at 280.212 g/ha (Downy Brome [17]): 25%; inhibition at 280.212 g/ha (Rape [18]): 50%; inhibition at 280.212 g/ha (Bedstraw Catchweed [19]): 30%; inhibition at 280.212 g/ha (Wheat [20]): 0%; inhibition at 280.212 g/ha (Green Foxtail [21]): 98%

— patent US5672715A, “Herbicidal substituted 3-aryl-pyrazoles” (Monsanto Company, priority 1995, dated 1997)
